Columns and labels:
[1] = Peptide titrations by SUVs followed by tryptophan fluorescence (solution-to-membrane partition); format: physicochemical; details: POPC:POPG 8:2 SUVs, buffer A pH 7.4, 25 °C, tryptophan fluorescence ratio 330/370 nm; S.D. within ± 10%
Procedure: Lipid vesicles preparation
Small unilamellar vesicles (SUVs) and large unilamellar vesicles (LUVs) were prepared with POPC and POPG at a molar ratio of 8:2, at a lipid concentration of 10 mM in buffer A, as previously described 1. Briefly, SUVs and LUVs were prepared by reverse phase evaporation and filtered through polycarbonate filters of 1 μm and 0.2 μm of pore size diameter to obtain L UV. SUVs were further sonicated. The hydrodynamic diameters and mean net charge of the vesicles were measured by dynamic light scattering (DLS) and electrophoretic mobility, respectively, using a ZetaSizer NanoZS (Malvern Pananalytical , Orsay, France) 11.
Peptide titrations bySUV s and CaM followed by tryptophan fluorescence
Titrations were carried out with a FP-8200 Jasco spectrofluorimeter, equipped with a Pelt ie r - thermostated ETC-272T at 25°C. A bandwidth of 5 nm was used for both excitation and […]
(Hellma, France) with constant stirring. Fluorescence emission was recorded between 300 and […]
400 nm at a scan rate of 100 nm/min, with an excitation wavelength of 280 nm. Fluorescence emission spectra were corrected for SUV or CaM baselines . Fluorescence intensity ratio at 330 nm over 370 nm was use d to measure the partition coefficient (K X) of peptides between the solution andmembrane s 1, 12 and the affinity (K d) of peptides for CaM 13.
Determination of partition coefficient KX and dissociation constant Kd from […]
The partition coefficient KX is defined as the ratio of protein in the lipid (PL) and in buffer […]
(PW) pha se s 12, 14, expressed by: KKXX = [LL ]? , giving[PPWW ] [PPWW ]= [WW], where [W] the […]
concentration of water (55.5 M) and [L] the lipid concentration.
The fraction of peptide partitioned into the membrane, fPL, is equal to:
ffPPLL = [PPLL ][PPTT ]= [PPLL ][PPLL ]+[PPWW ]= 11+([PPWW ])= 11+( [WW]), where PT is the total concentration of peptides [PP TT ]= [PP LL ]+ [PP WW ]. […]
The equations a re fitted to the experimental data using the KaleidaGraph software, providing the KX and K d value s. The partition coefficient is related to the apparent dissociation constant:
KKXX × KKdd = [WW ] and to the free energy of partition ΔG Kx = -RTln(K X), where ΔG is the free energy in kcal/mol, R the gas constant (R = 1.98 x 10-3 kcal/mol/K) and T the temperature i n Kelvin. The free energy of peptide CaM interaction, ∆G Kd, is given by ΔG Kd = RTln(K d).
Sedimentation velocity-Analytical ultracentrifugation (SV -AUC) […]
ratio 1:1 (at 70 µM each). Samples were incubated 2h at 20°C in the ultracentrifuge and, then span at 42,000 rpm in an An-50 Ti rotor. […]

[2] = Peptide translocation across droplet interface bilayers (DIB); format: in vitro ADME; details: TAMRA (dye)-labeled peptide in cis, 15 min; for Peptide in trans droplet, 5 µM holo-CaM in trans: POPC:POPG 9:1 bilayer, CaCl2 2 mM cis vs 0.2 mM trans, epifluorescence, four to seven independent trials
Procedure: weak fluorescence signal. […]
fluorescence signal. The samples were prepared at the following final concentrations: 10 µM […]
concentration of CDZ wa s 14.5 mM in 100% DMSO. Addition of CDZ at a final concentration of 40 µ M gives a final concentration of less than 0.3 % of DMSO in the […]
Peptide translocation followed by droplet interface bilayerexperiments
An aqueous phase is prepared with buffer D or E and the oil phase is prepared with 15 % (v/v) of chloroform and 0.08%(w/v) of lipids (POP C: POP G at a 9:1molar ratio) in squalene.
A population of droplets is obtained by adding 2 µL of the aqueous phase to 20 µL of the oil phase before briefly shaking the mixture to create an invert emulsion. Two droplet populations were prepared: one containing the TAMRA-labeled peptide in buffer D , the “source”, cis-droplets and the other one containing buffer D or E, or in the presence or in the absence of calmodulin, the “capture”, trans -droplets. […] The fluorescence signals of the “source” and the “capture” droplets were monitored by epifluorescence microscopy for 15 minutes with an Olympus microscope and a MicroMax camera (Princeton Instrument). […]
Quantification of the translocation process is possible thanks to the analysis of the fluorescence images of the droplet pairs. Even if fluorescence is not directly proportional to peptide concentration due to photo-bleaching and small volume variations, one can hypothesize that the fluorescence intensities of the “source” and the “capture” droplets are proportional to the ratio of their concentrations. Moreover, as the initial concentration in the “source” droplet is known and as the total amount of peptide is conserved during the experience, we can write that: CCss (tt = 0) × VVss = CCss (tt ) × VVss + CCcc (tt ) × VVcc , where Ci is the concentration of the droplet i, Vi its volume, which was determined from microscopy images (i=”s” for the source droplet and “c” for the capture droplet). […]
CCcc = CCss (tt = 0) × VVss where F i is the fluorescence intensity measured fordroplet i. […]
analyzed in buffer C. […]

Row | Compound | Partition coefficient KX [1] | Peptide in trans droplet, 5 µM holo-CaM in trans [2] | Peptide in trans droplet, 100 µM CaM in trans ([2]; calcium gradient 2 mM cis vs 0.2 mM trans, five to seven independent trials)
1 | Ac-ASAHWGQEALQGAQAVAAAQELVHAIALMTQ-NH2 [P454 R12E] | 80 ×10^3 | do not accumulate | significant accumulation
2 | CC[C@H](C)[C@H](NC(=O)[C@H](CCCCN)NC(=O)[C@H](Cc1c[nH]c2ccccc12)NC(=O)[C@H](CC(C)C)NC(=O)[C@H](CC(C)C)NC(=O)[C@H](CC(=O)O)NC(=O)[C@@H](NC(=O)[C@H](CCCNC(=N)N)NC(=O)[C@H](CCC(=O)O)NC(=O)[C@H](CCCNC(=N)N)NC(=O)[C@H](CC(=O)O)NC(=O)[C@H](CC(C)C)NC(C)=O)[C@@H](C)CC)C(=O)N[C@@H](C)C(=O)N[C@@H](CCCNC(=N)N)C(=O)N[C@@H](C)C(=O)NCC(=O)N[C@@H](C)C(=O)N[C@@H](CCCNC(=N)N)C(=O)N[C@@H](CO)C(=O)N[C@@H](C)C(=O)N[C@H](C(=O)NCC(N)=O)C(C)C [H-helix, reference compound] |  | do not accumulate | 
